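Growth conditions: 96-well plates. Treatment: test compound, 48 hours, 5 concentrations. Analysis: linear interpolation between bracketing concentrations; unreached endpoints set to highest concentration. At the GI50, growth is halved.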 Calls of active or inactive are those of the source. Rule as the data show it: active = GI50 up to about 1.1 µM and inactive = higher.
Legend:
Test in all cases: inhibition of tumour cell growth, NCI panel, 48 h
[1] = tested on: TK-10
[2] = tested on: OVCAR-3
[3] = tested on: CCRF-CEM
[4] = tested on: HOP-62
[5] = tested on: A549
[6] = tested on: MOLT-4
[7] = tested on: NCI-H522
[8] = tested on: 786-0
[9] = tested on: SF-268
[10] = tested on: MCF7
[11] = tested on: OVCAR-5
[12] = tested on: SNB-75
[13] = tested on: COLO 205
[14] = tested on: T47D
[15] = tested on: NCI-H460
[16] = tested on: Malme-3M
[17] = tested on: EKVX
[18] = tested on: MDA-MB-435
[19] = tested on: NCI-H226
[20] = tested on: UACC-257

Measured: GI50

COc1cccc(NC(=O)CC(=O)N2N=C(C)C(/N=N\c3ccc(S(=O)(=O)c4ccc(/N=N/C5C(=O)N(C(=O)CC(=O)Nc6cccc(OC)c6)N=C5C)cc4)cc3)C2=O)c1 (stereo not given)
inactive: [1] > 100 µM | [2] > 100 µM | [3] > 100 µM | [4] > 100 µM | [5] > 100 µM | [6] > 100 µM | [7] > 100 µM | [8] > 100 µM | [9] > 100 µM | [10] > 100 µM | [11] > 100 µM | [12] > 100 µM | [13] > 100 µM | [14] > 100 µM | [15] > 100 µM | [16] 58.9 µM | [17] > 100 µM | [18] > 100 µM | [19] > 100 µM | [20] > 100 µM

CO/N=C(/C(=O)N(C(=O)/C(=N/OC)c1csc(NC(c2ccccc2)(c2ccccc2)c2ccccc2)n1)n1cnn(CC(=O)OC(C)(C)C)c1=O)c1csc(NC(c2ccccc2)(c2ccccc2)c2ccccc2)n1
inactive: [1] > 10 µM | [2] > 10 µM | [3] > 10 µM | [4] > 10 µM | [5] > 10 µM | [6] > 10 µM | [7] > 10 µM | [8] > 10 µM | [9] > 10 µM | [10] > 10 µM | [11] > 10 µM | [12] > 10 µM | [13] > 10 µM | [14] > 10 µM | [15] > 10 µM | [16] > 10 µM | [17] > 10 µM | [18] > 10 µM | [19] > 10 µM | [20] > 10 µM

Cc1nc2nn[nH]n2c(=O)c1CCO
inactive: [1] > 100 µM | [2] > 100 µM | [3] > 100 µM | [4] > 100 µM | [5] > 100 µM | [6] > 100 µM | [7] > 100 µM | [8] > 100 µM | [9] > 100 µM | [10] > 100 µM | [11] > 100 µM | [12] 26.6 µM | [13] > 100 µM | [14] > 100 µM | [15] > 100 µM | [16] > 100 µM | [17] > 100 µM | [18] > 100 µM | [19] > 100 µM | [20] > 100 µM

CCOC(=O)C(SCCO)C(C(=O)OCC)n1cnc2c(N)ncnc21 (stereo not given)
inactive: [1] 15 µM | [2] 12.7 µM | [3] 1.96 µM | [4] 21.7 µM | [5] 44.3 µM | [6] 4.78 µM | [7] 3.46 µM | [8] 3.03 µM | [9] 15.9 µM | [10] 5.55 µM | [11] 7.05 µM | [12] 12.1 µM | [13] 6.03 µM | [14] 11.2 µM | [15] 12.4 µM | [16] 9.91 µM | [17] 16.5 µM | [18] 13.6 µM | [19] 11.1 µM | [20] 35.1 µM

N/C(=N\Nc1ccc(Cl)cc1)c1cnccn1
inactive: [1] > 100 µM | [2] 64.3 µM | [3] 28.6 µM | [4] 85.5 µM | [5] > 100 µM | [6] 39.8 µM | [7] 28.3 µM | [8] 68.7 µM | [9] > 100 µM | [10] 38.5 µM | [11] > 100 µM | [12] > 100 µM | [13] 18 µM | [14] 13 µM | [15] 37.2 µM | [16] 95.9 µM | [17] 81.7 µM | [18] 16.3 µM | [19] 48.8 µM | [20] 28.3 µM

COc1cc(/C=C2\N=C(c3ccccc3)N(/N=C3\C(=O)Nc4ccccc43)C2=O)cc(OC)c1OC
inactive: [1] > 100 µM | [2] 24.9 µM | [3] 37.1 µM | [4] > 100 µM | [5] > 100 µM | [6] 25.4 µM | [7] 27.8 µM | [8] > 100 µM | [9] 66.4 µM | [10] > 100 µM | [11] > 100 µM | [12] > 100 µM | [13] 57.4 µM | [14] > 100 µM | [15] > 100 µM | [16] 58.5 µM | [17] 46.2 µM | [18] 39.1 µM | [19] 41.7 µM | [20] > 100 µM

CSC(=Nc1nnc(-c2ccc([N+](=O)[O-])cc2)s1)SC
inactive: [1] 16.6 µM | [2] 57.3 µM | [3] > 100 µM | [4] 20.1 µM | [5] 46.8 µM | [6] > 100 µM | [7] 15.5 µM | [8] 20.7 µM | [9] 16.7 µM | [10] 36.6 µM | [11] > 100 µM | [12] 11.9 µM | [13] > 100 µM | [14] 17.8 µM | [15] > 89.1 µM | [16] > 74.1 µM | [17] 54.5 µM | [18] > 67.1 µM | [19] 33.7 µM | [20] > 93.1 µM

COc1ccc(C(=O)N(Cc2cccnc2)C(=S)N(Cc2cccnc2)C(=O)c2ccc(OC)cc2)cc1
inactive: [1] > 100 µM | [2] > 100 µM | [3] > 100 µM | [4] 35 µM | [5] > 100 µM | [6] > 100 µM | [7] 72.1 µM | [8] > 100 µM | [9] 52.1 µM | [10] > 100 µM | [11] > 100 µM | [12] 17.2 µM | [13] > 100 µM | [14] > 100 µM | [15] > 100 µM | [16] > 100 µM | [17] > 100 µM | [18] 62.8 µM | [19] > 100 µM | [20] > 100 µM

CC(CNC(N)=O)NC(N)=O (stereo not given)
inactive: [1] > 100 µM | [2] > 100 µM | [3] > 100 µM | [4] > 100 µM | [5] > 100 µM | [6] > 100 µM | [7] > 100 µM | [8] > 100 µM | [9] > 100 µM | [10] > 100 µM | [11] > 100 µM | [12] > 100 µM | [13] > 100 µM | [14] > 100 µM | [15] > 100 µM | [16] > 100 µM | [17] > 100 µM | [18] > 100 µM | [19] > 100 µM | [20] > 100 µM

O=c1[nH]c(=O)n(C2CC(O)C(CO)O2)cc1I (stereo not given)
inactive: [1] > 100 µM | [2] > 100 µM | [3] 17.5 µM | [4] > 100 µM | [5] > 73.1 µM | [6] 75.7 µM | [7] > 100 µM | [8] > 100 µM | [9] > 100 µM | [10] 18.5 µM | [11] > 100 µM | [12] > 100 µM | [13] > 100 µM | [14] > 100 µM | [15] > 60.7 µM | [16] > 100 µM | [17] > 100 µM | [18] > 100 µM | [19] > 100 µM | [20] > 100 µM

Source: ChEMBL document CHEMBL1201862, “PubChem BioAssay data set” (2004)
